Source: DBAASP
≈ marks a conversion by molar mass, not a printed value. Where “and” joins values, the source holds several entries; their conditions need not be identical. Equal entries are not always repeated. Blank lines part the entries; values can stand above or below the compound they belong to.

What was measured:
Test in all cases: ≥ marks a high value that may be exact or a test limit, other limits are often not marked, values filed in µg/mL are converted to µM
[1] = tested on: Acinetobacter baumannii ATCC 19606
Acinetobacter baumannii = tested on: Acinetobacter baumannii
[2] = tested on: Bacillus subtilis AB91021
[3] = tested on: Bacillus thuringiensis AB92037
[4] = tested on: Enterococcus faecalis ATCC 29212
Enterococcus faecalis = tested on: Enterococcus faecalis
Enterococcus faecium = tested on: Enterococcus faecium
Escherichia coli AB94012 = tested on: Escherichia coli AB94012
[5] = tested on: Escherichia coli ATCC 25922
[6] = tested on: Escherichia coli ATCC 35218
Escherichia coli = tested on: Escherichia coli
[7] = tested on: Klebsiella pneumoniae ATCC 700603
Klebsiella pneumoniae = tested on: Klebsiella pneumoniae
[8] = tested on: Micrococcus luteus AB93113
[9] = tested on: Pseudomonas aeruginosa A092994
[10] = tested on: Pseudomonas aeruginosa A093052
[11] = tested on: Pseudomonas aeruginosa A093056
[12] = tested on: Pseudomonas aeruginosa A093085
[13] = tested on: Pseudomonas aeruginosa A093115
[14] = tested on: Pseudomonas aeruginosa AB93066
[15] = tested on: Pseudomonas aeruginosa ATCC 27853
Pseudomonas aeruginosa = tested on: Pseudomonas aeruginosa
[16] = tested on: Staphylococcus aureus AB94004
[17] = tested on: Staphylococcus aureus ATCC 25923
[18] = tested on: Staphylococcus aureus ATCC 29213
[19] = tested on: Staphylococcus aureus NBRC 100910
[20] = tested on: Staphylococcus aureus P1369
[21] = tested on: Staphylococcus aureus P1374
[22] = tested on: Staphylococcus aureus P1381
[23] = tested on: Staphylococcus aureus P1383
Staphylococcus aureus = tested on: Staphylococcus aureus
[24] = tested on: Staphylococcus epidermidis P1111
[25] = tested on: Staphylococcus epidermidis P1389
[26] = tested on: Staphylococcus epidermidis
[27] = tested on: Bacillus megaterium CGMCC 1.0459
[28] = tested on: Micrococcus luteus CGMCC 1.0290
Acinetobacter junii RT-4 = tested on: Acinetobacter junii RT-4
Bacillus megaterium Bm11 = tested on: Bacillus megaterium Bm11
[29] = tested on: Candida albicans ATCC 10231
Escherichia coli D21 = tested on: Escherichia coli D21
[30] = tested on: Pseudomonas aeruginosa ATCC 15692
[31] = tested on: Pseudomonas syringae pv. tabaci 1918NCPPB
Saccharomyces cerevisiae = tested on: Saccharomyces cerevisiae
[32] = tested on: Schizosaccharomyces pombe
[33] = tested on: Staphylococcus aureus Cowan 1
Staphylococcus capitis 1 = tested on: Staphylococcus capitis 1
[34] = tested on: Staphylococcus epidermidis ATCC 12228
[35] = tested on: Streptococcus pyogenes ATCC 21547
[36] = tested on: Yersinia pseudotuberculosis YPIII
Bordetella pertussis = tested on: Bordetella pertussis

MIC [1]: 2.99 µM (≈ 5 µg/mL)
MIC (Acinetobacter baumannii): 4.22 µM (≈ 7.07 µg/mL)
MIC [2]: 3.73 µM (≈ 6.25 µg/mL)
MIC [3]: 3.73 µM (≈ 6.25 µg/mL)
MIC [4]: 2.99 µM (≈ 5 µg/mL)
MIC (Enterococcus faecalis): 5.97 µM (≈ 9.99 µg/mL)
MIC (Enterococcus faecium): 2.99 µM (≈ 5 µg/mL)
MIC (Escherichia coli AB94012): 3.73 µM (≈ 6.25 µg/mL)
MIC [5]: 14.9 µM and 5.97 µM
MIC [6]: 5.97 µM (≈ 9.99 µg/mL)
MIC (Escherichia coli): 8.45 µM (≈ 14.1 µg/mL)
MIC [7]: 5.97 µM (≈ 9.99 µg/mL)
MIC (Klebsiella pneumoniae): 5.97 µM (≈ 9.99 µg/mL)
MIC [8]: 3.73 µM (≈ 6.25 µg/mL)
MIC [9]: 29.9 µM (≈ 50 µg/mL)
MIC [10]: ≥ 59.7 µM
MIC [11]: 29.9 µM (≈ 50 µg/mL)
MIC [12]: 29.9 µM (≈ 50 µg/mL)
MIC [13]: ≥ 59.7 µM
MIC [14]: 14.9 µM (≈ 25 µg/mL)
MIC [15]: 5.97 µM (≈ 9.99 µg/mL)
MIC (Pseudomonas aeruginosa): 8.45 µM (≈ 14.1 µg/mL)
MIC [16]: 1.87 µM (≈ 3.13 µg/mL)
MIC [17]: 1.87 µM (≈ 3.13 µg/mL)
MIC [18]: 2.99 µM (≈ 5 µg/mL)
MIC [19]: 2.39 µM (≈ 4 µg/mL)
MIC [20]: 1.87 µM (≈ 3.13 µg/mL)
MIC [21]: 1.87 µM (≈ 3.13 µg/mL)
MIC [22]: 3.73 µM (≈ 6.25 µg/mL)
MIC [23]: 3.73 µM (≈ 6.25 µg/mL)
MIC (Staphylococcus aureus): 2.11 µM (≈ 3.53 µg/mL)
MIC [24]: 1.87 µM (≈ 3.13 µg/mL)
MIC [25]: 3.73 µM (≈ 6.25 µg/mL)
MIC [26]: 2.11 µM (≈ 3.53 µg/mL)
SMILES: CC[C@H](C)[C@H](NC(=O)[C@H](CCCN=C(N)N)NC(=O)[C@H](CCCCN)NC(=O)[C@@H](NC(=O)[C@@H](N)Cc1ccccc1)[C@@H](C)CC)C(=O)N[C@@H](C)C(=O)N[C@@H](CCCN=C(N)N)C(=O)N[C@@H](CC(C)C)C(=O)N[C@@H](CC(C)C)C(=O)N[C@@H](CCCN=C(N)N)C(=O)N[C@@H](CCCCN)C(=O)N[C@H](C(=O)N[C@@H](Cc1ccccc1)C(N)=O)[C@@H](C)CC [FIKRIARLLRKIF]

MIC [27]: 1.5 µM (≈ 6.96 µg/mL)
MIC [28]: 4.54 µM (≈ 21.1 µg/mL)
SMILES: CC(C)C[C@@H]1NC(=O)[C@@H]2CSSC[C@@H](C(=O)N[C@@H](CCCN=C(N)N)C(=O)O)NC(=O)[C@H](C(C)C)NC(=O)[C@@H]3CSSC[C@H](NC(=O)[C@H](C)NC(=O)[C@H](CO)NC(=O)[C@H](Cc4cnc[nH]4)NC(=O)[C@H](CC(N)=O)NC(=O)[C@@H]4CCCN4C(=O)[C@H](CO)NC(=O)[C@H](C(C)C)NC(=O)[C@H](Cc4c[nH]c5ccccc45)NC(=O)[C@H](CCCCN)NC(=O)[C@H](CO)NC(=O)[C@H](CCC(N)=O)NC(=O)[C@H](Cc4ccccc4)NC(=O)[C@H](CO)NC(=O)[C@H](CC(C)C)NC(=O)[C@H](C(C)C)NC(=O)[C@H](CC(=O)O)NC(=O)[C@@H](NC(=O)[C@H](CO)NC(=O)[C@@H](N)Cc4ccccc4)CSSC[C@H](NC(=O)[C@H](CCCCN)NC(=O)CNC(=O)CNC(=O)[C@H](CCCCN)NC(=O)[C@H](CCCN=C(N)N)NC(=O)[C@H](CCCN=C(N)N)NC(=O)[C@H](CCC(N)=O)NC(=O)[C@H](C)NC1=O)C(=O)N[C@@H](CCCCN)C(=O)N[C@@H](CC(N)=O)C(=O)NCC(=O)N[C@@H](CC(=O)O)C(=O)N3)C(=O)N[C@@H](C)C(=O)N[C@@H](C(C)C)C(=O)N[C@@H](CCCN=C(N)N)C(=O)N2 [FSCDVLSFQSKWVSPNHSACAVRCLAQRRKGGKCKNGDCVCR]

MIC [1]: 6 µM (≈ 9.67 µg/mL)
MIC (Acinetobacter junii RT-4): 6 µM (≈ 9.67 µg/mL)
MIC (Bacillus megaterium Bm11): 3 µM (≈ 4.84 µg/mL)
MIC [29]: 12 µM (≈ 19.3 µg/mL)
MIC [4]: 12 µM (≈ 19.3 µg/mL)
MIC [5]: 12 µM (≈ 19.3 µg/mL)
MIC (Escherichia coli D21): 24 µM (≈ 38.7 µg/mL)
MIC [30]: 24 µM (≈ 38.7 µg/mL)
MIC [15]: 48 µM (≈ 77.4 µg/mL)
MIC [31]: 24 µM (≈ 38.7 µg/mL)
MIC (Saccharomyces cerevisiae): 6 µM (≈ 9.67 µg/mL)
MIC [32]: 6 µM (≈ 9.67 µg/mL)
MIC [17]: 6 µM (≈ 9.67 µg/mL)
MIC [33]: 12 µM (≈ 19.3 µg/mL)
MIC (Staphylococcus capitis 1): 6 µM (≈ 9.67 µg/mL)
MIC [34]: 6 µM (≈ 9.67 µg/mL)
MIC [35]: 6 µM (≈ 9.67 µg/mL)
MIC [36]: 6 µM (≈ 9.67 µg/mL)
SMILES: CC[C@H](C)[C@H](NC(=O)[C@H](CCCCN)NC(=O)CNC(=O)[C@H](CC(C)C)NC(=O)[C@H](Cc1ccccc1)NC(=O)[C@H](CCCCN)NC(=O)[C@H](CO)NC(=O)[C@H](Cc1ccccc1)NC(=O)[C@H](Cc1c[nH]c2ccccc12)NC(=O)[C@H](CCC(N)=O)NC(=O)[C@@H](NC(=O)[C@@H](N)Cc1ccccc1)C(C)C)C(=O)N[C@@H](CC(C)C)C(N)=O [FVQWFSKFLGKIL]

MIC (Bordetella pertussis): 1.1 µM (≈ 4.99 µg/mL)
MIC [5]: 22.1 µM (≈ 99.9 µg/mL)
MIC [17]: 17.7 µM (≈ 79.9 µg/mL)
SMILES: CC[C@H](C)[C@@H]1NC(=O)[C@H](CCC(N)=O)NC(=O)[C@H](CCCCN)NC(=O)[C@H](CCSC)NC(=O)[C@H](CCCCN)NC(=O)[C@@H]2CCCN2C(=O)[C@H](C)NC(=O)[C@@H]2CSSC[C@@H](C(=O)N[C@@H](CCCCN)C(=O)N[C@@H](CCCN=C(N)N)C(=O)N[C@@H](CCCCN)C(=O)O)NC(=O)[C@@H]3CSSC[C@H](NC(=O)[C@H](CO)NC(=O)[C@@H](NC(=O)[C@H](CO)NC(=O)[C@H](CC(N)=O)NC(=O)CNC(=O)[C@@H](NC(=O)[C@H](CC(N)=O)NC(=O)[C@@H](N)CCCCN)[C@@H](C)CC)C(C)C)C(=O)N[C@@H](CC(C)C)C(=O)N[C@@H](CCCN=C(N)N)C(=O)N[C@@H](CC(N)=O)C(=O)N[C@@H](CCCCN)C(=O)NCC(=O)N[C@@H](C(C)C)C(=O)N[C@@H](CSSC[C@H](NC(=O)[C@H]([C@@H](C)O)NC(=O)CNC1=O)C(=O)NCC(=O)N[C@@H](CCSC)C(=O)N1CCC[C@H]1C(=O)N[C@@H](CCC(N)=O)C(=O)N[C@@H](C(C)C)C(=O)N[C@@H](CCCCN)C(=O)N3)C(=O)N[C@@H](CCSC)C(=O)N1CCC[C@H]1C(=O)NCC(=O)N[C@@H](CCCCN)C(=O)N2 [KNIGNSVSCLRNKGVCMPGKCAPKMKQIGTCGMPQVKCCKRK]
